Test results: ChEMBL document CHEMBL1201862, “PubChem BioAssay data set” (2004)
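Exposure lasted 48 hours, with cells grown in 96-well plates and compounds tested at five concentrations. Here, GI50 denotes the concentration required for 50% inhibition of growth.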 Calls of active or inactive are those of the source. No stated cut-off is given here; in the data, active = GI50 up to about 1.1 µM and inactive = higher.

Assays:
Test in all cases: NCI-60 cell line screen, 48 h
[1] = system: K562
[2] = system: UACC-257
[3] = system: OVCAR-4
[4] = system: SN12C
[5] = system: SNB-78
[6] = system: NCI-H522
[7] = system: UACC-62
[8] = system: CAKI-1
[9] = system: HOP-18
[10] = system: A549
[11] = system: KM-20L2
[12] = system: HCT-116
[13] = system: SF-539
[14] = system: NCI-H226
[15] = system: HCT-15
[16] = system: UO-31
[17] = system: NCI-H460
[18] = system: LXFL 529
[19] = system: NCI-H23
[20] = system: SK-MEL-5
[21] = system: SF-295
[22] = system: SF-268
[23] = system: KM12
[24] = system: TK-10
[25] = system: COLO 205
[26] = system: DMS-273
[27] = system: Malme-3M
[28] = system: M19-MEL
[29] = system: HT-29
[30] = system: SNB-75
[31] = system: EKVX
[32] = system: U-251
[33] = system: MOLT-4
[34] = system: SR
[35] = system: IGROV-1
[36] = system: OVCAR-5
[37] = system: HOP-62
[38] = system: SK-MEL-2
[39] = system: HOP-92
[40] = system: SNB-19
[41] = system: ACHN
[42] = system: A498
[43] = system: XF498
[44] = system: OVCAR-3
[45] = system: RPMI-8226
[46] = system: SK-MEL-28
[47] = system: SK-OV-3
[48] = system: M14
[49] = system: SW-620
[50] = system: CCRF-CEM
[51] = system: HL-60
[52] = system: 786-0
[53] = system: DMS-114
[54] = system: OVCAR-8
[55] = system: DLD-1
[56] = system: LOX IMVI
[57] = system: HCC 2998

Measured: GI50

Oc1ccc(-c2n[nH]c(S)n2)cc1
> 100 µM: [15]
inactive: [1] > 100 µM | [2] > 100 µM | [3] > 100 µM | [4] > 100 µM | [5] > 100 µM | [6] > 100 µM | [7] > 100 µM | [8] > 100 µM | [9] > 100 µM | [10] > 100 µM | [11] > 100 µM | [12] > 100 µM | [13] > 100 µM | [14] > 100 µM | [16] > 100 µM | [17] > 100 µM | [18] > 100 µM | [19] > 100 µM | [20] > 100 µM | [21] > 100 µM | [22] > 100 µM | [23] > 100 µM | [24] > 100 µM | [25] > 100 µM | [26] > 100 µM | [27] > 100 µM | [28] > 100 µM | [29] > 100 µM | [30] 87.5 µM | [31] > 100 µM | [32] > 100 µM | [33] > 100 µM | [34] > 100 µM | [35] > 100 µM | [36] > 100 µM | [37] > 100 µM | [38] > 100 µM | [39] > 100 µM | [40] > 100 µM | [41] > 100 µM | [42] > 100 µM | [43] > 100 µM | [44] > 100 µM | [45] > 100 µM | [46] > 100 µM | [47] > 100 µM | [48] > 100 µM | [49] > 100 µM | [50] > 100 µM | [51] > 100 µM | [52] > 100 µM | [53] > 100 µM | [54] > 100 µM | [55] > 100 µM

COc1cc2ccnc3c2c(c1OC)CC1CC(O)C(OC)CC31 (centres undefined)
63.8 µM: [15]
inactive: [1] 47.2 µM | [2] 37.1 µM | [3] > 100 µM | [4] 41.4 µM | [5] > 100 µM | [6] 60.1 µM | [7] 38.5 µM | [9] 21.8 µM | [10] 61.8 µM | [11] 43.2 µM | [12] 38.7 µM | [13] 24.4 µM | [14] 96.4 µM | [16] 20.9 µM | [17] 35.6 µM | [18] 36.6 µM | [19] 47.5 µM | [20] 38.4 µM | [21] 36.6 µM | [23] 40.9 µM | [24] 53.8 µM | [25] 43.2 µM | [26] 34 µM | [27] > 100 µM | [28] 96.2 µM | [29] 46.5 µM | [30] > 100 µM | [31] 22.8 µM | [32] 38 µM | [33] 33.3 µM | [34] 32 µM | [35] 66.4 µM | [36] 37.5 µM | [56] 31.7 µM | [37] 26.6 µM | [38] > 100 µM | [39] 14.7 µM | [40] 99.3 µM | [41] 44.4 µM | [43] 44.7 µM | [44] 82.2 µM | [45] 38.3 µM | [46] 22.7 µM | [47] > 100 µM | [48] 51.8 µM | [57] 42.7 µM | [49] 33.7 µM | [50] 78.3 µM | [51] 28.6 µM | [52] 33.5 µM | [53] 44.5 µM | [54] 53.8 µM | [55] 95.3 µM
